Source: PMC7179119, “A New Positron Emission Tomography Probe for Orexin Receptors Neuroimaging” (Molecules, 2020)
Where two headings read alike, the source gives them in different places.

Experiments:
Assay in all cases: PDSP off-target radioligand binding assay
D4 = molecular target: T1, D4 (Homo sapiens, UniProt P21917)
T1 construct: NIMH PDSP
T1 sequence (P21917 1-419): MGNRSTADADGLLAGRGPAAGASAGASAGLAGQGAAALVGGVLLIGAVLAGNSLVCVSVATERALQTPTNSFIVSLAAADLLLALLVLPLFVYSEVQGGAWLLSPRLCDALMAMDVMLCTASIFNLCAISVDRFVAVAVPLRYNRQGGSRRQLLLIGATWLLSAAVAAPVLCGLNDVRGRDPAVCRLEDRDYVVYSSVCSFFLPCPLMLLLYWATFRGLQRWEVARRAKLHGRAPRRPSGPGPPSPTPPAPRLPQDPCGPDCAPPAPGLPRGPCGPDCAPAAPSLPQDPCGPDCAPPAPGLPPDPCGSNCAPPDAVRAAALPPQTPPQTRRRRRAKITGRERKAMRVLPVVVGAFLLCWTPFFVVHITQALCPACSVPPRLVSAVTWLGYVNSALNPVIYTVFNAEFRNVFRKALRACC
Protocol: (§1) Table S1. Off binding data of CW24.
(§2) The off-target binding assays were performed at PDSP with their standard protocol (https://pdspdb.unc.edu/pdspWeb/content/UNC-CH%20Protocol%20Book.pdf). In radioligand binding assays, CW24 was tested at a single concentration (10 µM) and in quadruplicate in 96-well plates. The binding assays were carried out in a final of volume of 125 µl per well in appropriate binding buffers. The hot ligand concentration is usually at a concentration close to the Kd (unless otherwise indicated). Total binding and nonspecific binding are determined in the absence and presence of 10 µM of the appropriate reference compound, respectively. In brief, plates are usually incubated at room temperature and in the dark for 90 mins. Reactions are stopped by vacuum filtration onto 0.3% polyethyleneimine (PEI) soaked 96-well filter mats using a 96-well Filtermate harvester, followed by three washes with cold wash buffers (for details, see Tables 2 to 24). Scintillation cocktail is then melted onto the microwave-dried filters on a hot plate and radioactivity is counted in a Microbeta counter.
(§3) Receptor % Inhibition 1 % Inhibition 2 % Inhibition 3 % Inhibition 4 Mean±SD %

Alpha2C = molecular target: T2, Alpha2C (Homo sapiens, UniProt P18825)
T2 construct: NIMH PDSP
T2 sequence (P18825 1-462): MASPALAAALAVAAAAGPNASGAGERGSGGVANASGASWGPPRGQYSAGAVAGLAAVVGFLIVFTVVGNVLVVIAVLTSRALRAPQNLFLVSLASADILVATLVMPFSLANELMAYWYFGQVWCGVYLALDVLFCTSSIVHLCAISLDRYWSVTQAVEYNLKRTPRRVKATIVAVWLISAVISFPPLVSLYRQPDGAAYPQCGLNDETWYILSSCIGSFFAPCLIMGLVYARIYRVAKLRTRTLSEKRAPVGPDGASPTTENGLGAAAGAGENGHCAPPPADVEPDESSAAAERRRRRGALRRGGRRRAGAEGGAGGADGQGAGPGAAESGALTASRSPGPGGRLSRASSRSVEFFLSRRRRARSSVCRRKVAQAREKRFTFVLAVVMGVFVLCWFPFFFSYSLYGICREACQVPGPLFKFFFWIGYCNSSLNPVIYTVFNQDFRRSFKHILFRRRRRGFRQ
Protocol: as §1, §2, §3

5-HT7A = molecular target: T3, 5-HT7A (Homo sapiens, UniProt P34969)
T3 construct: NIMH PDSP
T3 sequence (P34969 1-445 isoform P34969-2): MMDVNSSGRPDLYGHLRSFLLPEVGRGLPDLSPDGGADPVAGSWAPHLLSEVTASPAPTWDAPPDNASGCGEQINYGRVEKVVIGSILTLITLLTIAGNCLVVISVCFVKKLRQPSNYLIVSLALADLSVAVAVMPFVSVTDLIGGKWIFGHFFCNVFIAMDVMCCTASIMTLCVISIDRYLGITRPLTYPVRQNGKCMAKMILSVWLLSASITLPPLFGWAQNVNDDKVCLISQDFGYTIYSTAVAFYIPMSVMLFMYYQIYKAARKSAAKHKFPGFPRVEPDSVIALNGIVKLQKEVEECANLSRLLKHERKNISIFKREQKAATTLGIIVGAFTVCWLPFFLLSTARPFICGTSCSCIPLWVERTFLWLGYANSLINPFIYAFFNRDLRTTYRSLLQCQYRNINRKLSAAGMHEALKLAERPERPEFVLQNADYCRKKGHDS
Protocol: as §1, §2, §3

H1 = H1 (Homo sapiens, UniProt P35367)
Chain of H1 (P35367 whole entry): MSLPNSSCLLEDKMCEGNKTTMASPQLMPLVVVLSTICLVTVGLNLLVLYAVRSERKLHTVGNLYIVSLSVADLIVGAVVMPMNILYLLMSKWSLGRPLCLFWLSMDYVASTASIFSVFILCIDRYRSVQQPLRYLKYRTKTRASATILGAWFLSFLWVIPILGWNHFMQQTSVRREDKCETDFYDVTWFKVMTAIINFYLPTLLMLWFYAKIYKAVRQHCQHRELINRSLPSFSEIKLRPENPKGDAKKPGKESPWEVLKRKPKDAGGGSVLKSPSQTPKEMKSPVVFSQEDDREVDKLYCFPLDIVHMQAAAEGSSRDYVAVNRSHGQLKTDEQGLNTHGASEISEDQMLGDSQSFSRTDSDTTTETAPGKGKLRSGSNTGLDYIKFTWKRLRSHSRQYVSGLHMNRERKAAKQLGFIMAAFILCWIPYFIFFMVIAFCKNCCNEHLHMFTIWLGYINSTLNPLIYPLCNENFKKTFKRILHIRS
Protocol: as §1, §2, §3

H4 = H4 (Homo sapiens, UniProt Q9H3N8)
Chain of H4 (Q9H3N8 whole entry): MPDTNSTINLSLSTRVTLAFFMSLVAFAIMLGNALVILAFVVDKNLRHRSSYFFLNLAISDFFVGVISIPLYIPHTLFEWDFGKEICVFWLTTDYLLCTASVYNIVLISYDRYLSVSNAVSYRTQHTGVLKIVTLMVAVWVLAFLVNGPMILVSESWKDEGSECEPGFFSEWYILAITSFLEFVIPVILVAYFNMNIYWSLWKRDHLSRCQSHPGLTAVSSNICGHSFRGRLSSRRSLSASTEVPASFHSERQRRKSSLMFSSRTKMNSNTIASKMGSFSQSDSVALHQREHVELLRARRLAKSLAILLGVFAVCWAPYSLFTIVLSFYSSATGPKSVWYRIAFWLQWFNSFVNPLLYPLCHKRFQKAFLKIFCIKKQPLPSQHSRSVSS
Protocol: as §1, §2, §3

5-HT1A = molecular target: T4, 5-HT1A (Homo sapiens, UniProt P08908)
T4 construct: NIMH PDSP
T4 sequence (P08908 1-422): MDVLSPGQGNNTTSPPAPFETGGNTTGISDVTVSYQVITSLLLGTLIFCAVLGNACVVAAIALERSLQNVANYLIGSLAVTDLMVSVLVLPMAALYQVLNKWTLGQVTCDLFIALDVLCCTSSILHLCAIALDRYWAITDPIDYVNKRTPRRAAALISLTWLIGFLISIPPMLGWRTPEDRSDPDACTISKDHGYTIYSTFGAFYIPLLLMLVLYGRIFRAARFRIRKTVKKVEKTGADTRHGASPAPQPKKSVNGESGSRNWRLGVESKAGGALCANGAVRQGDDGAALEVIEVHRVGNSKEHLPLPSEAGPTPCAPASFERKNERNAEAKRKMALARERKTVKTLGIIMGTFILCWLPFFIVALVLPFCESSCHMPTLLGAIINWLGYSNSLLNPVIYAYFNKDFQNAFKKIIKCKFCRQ
Protocol: as §1, §2, §3

M4 = molecular target: T5, M4 (Homo sapiens, UniProt P08173)
T5 sequence (P08173 1-479): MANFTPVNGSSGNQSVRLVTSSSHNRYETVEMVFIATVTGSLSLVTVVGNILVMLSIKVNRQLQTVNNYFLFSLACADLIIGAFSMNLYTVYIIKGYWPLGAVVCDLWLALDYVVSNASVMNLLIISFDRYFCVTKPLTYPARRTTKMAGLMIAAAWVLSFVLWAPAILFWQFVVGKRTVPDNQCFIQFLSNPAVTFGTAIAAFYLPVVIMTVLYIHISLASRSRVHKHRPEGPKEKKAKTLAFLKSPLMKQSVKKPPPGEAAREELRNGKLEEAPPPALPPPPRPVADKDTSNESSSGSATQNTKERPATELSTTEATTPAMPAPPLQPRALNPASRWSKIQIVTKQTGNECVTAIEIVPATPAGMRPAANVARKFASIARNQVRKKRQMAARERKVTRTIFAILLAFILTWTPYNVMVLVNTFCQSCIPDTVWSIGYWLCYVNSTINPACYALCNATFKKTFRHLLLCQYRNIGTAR
Protocol: as §1, §2, §3

[1] = quadruplicate, read-out: Mean±SD % inhibition
[2] = replicate 1, read-out: % Inhibition 1
[3] = replicate 2, read-out: % Inhibition 2
[4] = replicate 3, read-out: % Inhibition 3
[5] = replicate 4, read-out: % Inhibition 4

## COc1ccnc(N2CCC3(CCCN(Cc4cn(C)c5ccccc45)C3=O)CC2)n1 [CW24]
D4; [1]
  inhibition at 10 µM: 67.2 ± 5.6%
D4; [2]
  inhibition at 10 µM: 73.2%
D4; [3]
  inhibition at 10 µM: 70%
D4; [4]
  inhibition at 10 µM: 60.3%
D4; [5]
  inhibition at 10 µM: 65.3%
Alpha2C; [1]
  inhibition at 10 µM: 11.1 ± 20.6%
Alpha2C; [2]
  inhibition at 10 µM: 38.6%
Alpha2C; [3]
  inhibition at 10 µM: 2.3%
Alpha2C; [4]
  inhibition at 10 µM: -9.91%
Alpha2C; [5]
  inhibition at 10 µM: 13.3%
5-HT7A; [1]
  inhibition at 10 µM: -54.8 ± 29.3%
5-HT7A; [2]
  inhibition at 10 µM: -92.7%
5-HT7A; [3]
  inhibition at 10 µM: -50.8%
5-HT7A; [4]
  inhibition at 10 µM: -54.3%
5-HT7A; [5]
  inhibition at 10 µM: -21.2%
H1; [1]
  inhibition at 10 µM: 10.5 ± 12.7%
H1; [2]
  inhibition at 10 µM: 13%
H1; [3]
  inhibition at 10 µM: -0.52%
H1; [4]
  inhibition at 10 µM: 1.94%
H1; [5]
  inhibition at 10 µM: 27.5%
H4; [1]
  inhibition at 10 µM: 3.44 ± 8.21%
H4; [2]
  inhibition at 10 µM: -8.25%
H4; [3]
  inhibition at 10 µM: 9.91%
H4; [4]
  inhibition at 10 µM: 8.32%
H4; [5]
  inhibition at 10 µM: 3.76%
5-HT1A; [1]
  inhibition at 10 µM: -10.2 ± 8.4%
5-HT1A; [2]
  inhibition at 10 µM: -4.55%
5-HT1A; [3]
  inhibition at 10 µM: -4.08%
5-HT1A; [4]
  inhibition at 10 µM: -22.1%
5-HT1A; [5]
  inhibition at 10 µM: -9.84%
M4; [1]
  inhibition at 10 µM: -3.86 ± 14.8%
M4; [2]
  inhibition at 10 µM: 0.88%
M4; [3]
  inhibition at 10 µM: -23.9%
M4; [4]
  inhibition at 10 µM: -3.92%
M4; [5]
  inhibition at 10 µM: 11.5%
